# Source: patent US7049312B1, “Benzothiazinone and benzoxazinone compounds” (Abbott GmbH & Co. KG, priority 1999, dated 2006)
row,SMILES,melting point [°C]
1,"CC(=O)OCCCCn1cc(C=C2Sc3ccccc3NC2=O)c2cccnc21 [Example 131, 2-{[1-(4-Acetoxybutyl)-7-azaindol-3-yl]methylene}-2H-1,4-benzothiazine-3(4H)-one]",158 to 160
2,"S=C1Nc2ccccc2SC1=Cc1c[nH]c2ccccc12 [Example 268, 2-[(Indol-3-yl)methylene]-2H-1,4-benzothiazine-3(4H)-thione]",253 to 256
3,"S=C1Nc2ccccc2SC1=Cc1c[nH]c2ncccc12 [Example 269, 2-[(7-azaindol-3-yl)methylene]-2H-1,4-benzothiazine-3(4H)-thione]",287 to 290
4,"S=C1Nc2ccccc2SC1=Cc1ccc[nH]1 [Example 270, 2-[(pyrrol-2-yl)methylene]-2H-1,4-benzothiazine-3(4H)-thione]",205 to 206
5,"S=C1Nc2ccccc2OC1=Cc1ccc[nH]1 [Example 271, 2-[(Pyrrol-2-yl)methylene]-2H-1,4-benzoxazin-3 (4H)-thione]",241 to 243
6,"S=C1Nc2ccccc2OC1=Cc1c[nH]c2ccccc12 [Example 272, 2-[(indol-3-yl)methylene]-2H-1,4-benzoxazin-3(4H)-thione]",275 to 277
7,"ON=C1Nc2ccccc2SC1=Cc1ccc[nH]1 [Example 273, 3-Hydroxyimino-2-[(pyrrol-2-yl)methylene]-2H-1,4-benzothiazine]",204 to 205
8,"CC(=O)ON=C1Nc2ccccc2SC1=Cc1ccc[nH]1 [Example 276, 3-Acetyloxyimino-2-[(pyrrol-2-yl)methylene]-2H-1,4-benzothiazine]",182 to 185
9,"O=C(ON=C1Nc2ccccc2SC1=Cc1ccc[nH]1)c1ccccc1 [Example 277, 3-Benzoyloxyimino-2-[(pyrrol-2-yl)methylene]-2H-1,4-benzothiazine]",188 to 189
10,"ON=C1Nc2ccccc2OC1=Cc1ccc[nH]1 [Example 278, 3-Hydroxyimino-2-[(pyrrol-2-yl)methylene]-2H-1,4-benzoxazine]",192 to 194
11,"O=C1Nc2ccccc2S(=O)(=O)C1=Cc1c[nH]c2ccccc12 [Example 280, 1,1-Dioxo-2-[(indol-3-yl)methylene]-2H-1,4-benzothiazin-3(4H)-one]",318 to 320
12,"COc1ccc(NC=C2C(=O)Nc3ccccc3S2(=O)=O)cc1 [Example 285, 1,1 Dioxo-2-[(4-methoxyphenylamino)methylene]-2H-1,4-benzothiazin-3(4H)-one]",250 to 251
13,"O=C1Nc2ncccc2OC1=Cc1ccccc1 [Example 297, 2-(Phenylmethylene)-2H-pyrido[3,2-b][1,4]oxazin-3(4H)-one]",223 to 225
